Measurements published in patent US8003811B2, “Nitric oxide donor compounds” (Nicox S.A., priority 2008, dated 2011).

Columns and labels:
[1] = tested on: isolated rabbit thoracic aorta preparations; experiment: Assay on vascular tone: vasorelaxation in isolated aortic rings precontracted with noradrenaline; format: cell-based; conditions: for EC50: Oryctolagus cuniculus, read-out: EC50 (μM) ± sem
Procedure: The ability of the compounds of the invention to induce vasorelaxation in comparison to precursor compounds, was tested in vitro in isolated rabbit thoracic aorta preparations (Wanstall J. C. et al., Br. J. Pharmacol., 134:463-472, 2001). Male New Zealand rabbits were anaesthetized with thiopental-Na (50 mg/kg, iv), sacrificed by exsanguinations and then the thorax was opened and the aorta dissected. Aortic ring preparations (4 mm in length) were set up in physiological salt solution (PSS) at 37° C. in small organ chambers (5 ml). The composition of PSS was (mM): NaCl 130, NaHCO3 14.9, KH2PO4 1.2, MgSO4 1.2, HEPES 10, […] (95% O2/5% CO2; pH 7.4). Each ring was mounted under 2 g passive tension. Isometric tension was recorded with a Grass transducer (Grass FT03) attached to a BIOPAC MP150 System. Preparations were allowed to equilibrate for 1 h, and then contracted submaximally with noradrenaline (NA, 1 μM) and, when the contraction was stable, acetylcholine (ACh, 10 μM) was added. A relaxant response to ACh indicated the presence of a functional endothelium. […] When a stable precontraction was reached, a cumulative concentration-response curve to either of the vasorelaxant agents was obtained in the presence of a functional endothelium. Each arterial ring was exposed to only one combination of inhibitor and vasorelaxant. Moreover, the effect of the soluble guanylyl cyclase inhibitor ODQ (1-H-(1,2,4)-oxadiazol(4,3-a)quinoxalin-1-one) on vasorelaxation elicited by the compounds was examined preincubating the aortic rings with ODQ (10 μM) for 20 min.
Responses to relaxing agents are expressed as a percentage of residual contraction and plotted against concentration of test compound. EC50 values (where EC50 is the concentration producing 50% of the maximum relaxation to the test compound) were interpolated from these plots. During the experimental period, the plateau obtained with NA was stable without significant spontaneous loss of contraction in the aortic rings.
Furthermore, in experiments performed in the presence of ODQ (10 μM), the vasorelaxant responses to tested compounds were inhibited.

[2] = tested on: Human Embryonic Kidney (HEK293) cell; experiment: cGMP accumulation assay; format: cell-based; conditions: intracellular cGMP, HEK293 cells, 30 min, with L-NAME, IBMX 100 μM and BAY 41-2272 1 μM
Procedure: The ability of the compounds of the invention to increase intracellular cGMP in comparison to vehicle was tested in vitro in Human Embryonic Kidney (HEK293) cell preparations. The method followed was as that reported in literature with minor modifications (Ongini et al., PNAS 2004; 101(22):8497-502. Ronchetti et al., Eur J. Pharmacol. 2006; 532(1-2):162-9).
Briefly, HEK293 cells were washed once with Hank's Balance Salt Solution (HESS) supplemented with HEPES (10 mM), MgCl2 (5 mM) and 0.05% ascorbic acid. Then they were pre-incubated for 20 min with a nitric oxide synthase inhibitor, N-nitro-L-arginine methyl ester (L-NAME) (300 μM) so to lower endogenous NO production. The cells were then exposed for 30 min to either vehicle (DMSO 1%) or increasing concentrations of test compounds (up to 100 μM) in presence of the phosphodiesterase inhibitor, 3-isobutyl-1-methylxanthine (IBMX, 100 μM) and the NO-independent activator/modulator of soluble guanylyl-cyclase, BAY 41-2272 (1 μM). The reaction was ended by the removal of the incubating buffer and the addition of 50 μl/well of 100% ice-cold ethanol. The plate was then dried under hot air steam and the cell residues dissolved, extracted and analysed using commercially available cyclic GMP enzyme immunoassay kit (Cayman Chemical, Ann Arbor, Mich., U.S.A.). Data obtained with the compounds of the present invention, expressed as % of vehicle at their respective maximal concentration (100 μM), are reported in Table 2.

[3] = tested on: conscious spontaneously hypertensive rats (SHRs); experiment: Assay for antihypertensive activity (in vivo), telemetry; set-up: species or system rat; conditions: for Δ SBP in SHR (mmHg) 2-6 hrs / Δ SBP in SHR (mmHg) 21-24 hrs / Δ SBP in SHR (mmHg) 25-48 hrs / Δ SBP in SHR (mmHg) 12 hrs: delta versus own baseline
Procedure: Assay for Antihypertensive Activity (In Vivo)
The ability of the compounds of the invention to decrease blood pressure was evaluated in conscious spontaneously hypertensive rats (SHRs). SHRs (250-300 g) received a single oral dose of tested compounds. Systolic blood pressure (SBP) and heart rate were monitored by telemetry for […] after dosing. SBP was evaluated before (baseline) and at different time points (i.e. 2-6, 12, 21-24, 25-48 hours) following treatment by oral administration of the compounds. The data were processed both as the absolute value or as a delta between the absolute value and its own baseline.
The Dataquest IV telemetry system (Data Sciences International) was used for measurement of systolic pressure, diastolic pressure, mean arterial pressure, heart rate, and motor activity. The monitoring system consists of a transmitter (radio frequency transducer model TA11PA), receiver panel, consolidation matrix, and personal computer with accompanying software. Before the device was implanted, calibrations were verified to be accurate within ±3 mmHg. Rats were anesthetized with ketamine/xylazine/acepromazine, and the flexible catheter of the transmitter was surgically secured in the abdominal aorta just below the renal arteries. The transmitter was sutured subcutaneously. Rats were housed in individual cages after the operation. Each cage was placed over the receiver panel that was connected to the personal computer for data acquisition. The rats were unrestrained and free to move within their cages. Hemodynamic data were sampled every 2 minutes for 10 seconds.

[4] = vasorelaxation of rabbit aortic rings precontracted with noradrenaline 1 μM, functional endothelium

O=C(CCCC(CO[N+](=O)[O-])O[N+](=O)[O-])O[C@@H]1CO[C@H]2[C@@H]1OC[C@H]2O (stereo partly drawn) [Example 1, (3R,3aR,6R,6aR)-6-hydroxyhexahydrofuro[3,2-b]furan-3-yl 5,6-bis(nitrooxy)hexanoate]
EC50 [1, 4]: 0.11 ± 0.03 µM
% of vehicle (mean ± sem at 100 μM) [2]: 1029.6 ± 80.2 % of vehicle
BP lowering compared to precursor compound (isomannide) ([3]; SHR, single oral dose, result in words): BP lowering with extended peak effect and duration of action
Δ SBP in SHR (mmHg) 2-6 hrs ([3]; single oral dose 4.4 mpk): −13 mmHg
Δ SBP in SHR (mmHg) 21-24 hrs ([3]; single oral dose 4.4 mpk): −20 mmHg
Δ SBP in SHR (mmHg) 25-48 hrs ([3]; single oral dose 4.4 mpk): −16 mmHg
Δ SBP in SHR (mmHg) 12 hrs ([3]; single oral dose 4.4 mpk): −16 mmHg

O=C(CCCCCO[N+](=O)[O-])O[C@@H]1CO[C@H]2[C@@H]1OC[C@H]2OC(=O)CCCCCO[N+](=O)[O-] [Example 2, (3R,3aR,6R,6aR)-hexahydrofuro[3,2-b]furan-3,6-diyl bis(6-(nitrooxy)hexanoate)]
EC50 [1, 4]: 3.1 ± 0.9 µM
% of vehicle (mean ± sem at 100 μM) [2]: 1082.67 ± 163.4 % of vehicle

O=C(CCCCCO[N+](=O)[O-])O[C@@H]1CO[C@H]2[C@@H]1OC[C@H]2O [Example 3, (3R,3aR,6R,6aR)-6-hydroxyhexahydrofuro[3,2-b]furan-3-yl 6-(nitrooxy)hexanoate]
EC50 [1, 4]: 2.5 ± 0.6 µM
% of vehicle (mean ± sem at 100 μM) [2]: 677.83 ± 79.6 % of vehicle

O=C(CCC[C@@H](CO[N+](=O)[O-])O[N+](=O)[O-])O[C@@H]1CO[C@H]2[C@@H]1OC[C@H]2O [Example 4]
EC50 [1, 4]: 0.11 ± 0.02 µM
% of vehicle (mean ± sem at 100 μM) [2]: 986.3 ± 90.0^ % of vehicle

O=C(CCC[C@H](CO[N+](=O)[O-])O[N+](=O)[O-])O[C@@H]1CO[C@H]2[C@@H]1OC[C@H]2O [Example 5, (R)-((3R,3aR,6R,6aR)-6-hydroxyhexahydrofuro[3,2-b]furan-3-yl) 5,6-bis(nitrooxy)hexanoate]
% of vehicle (mean ± sem at 100 μM) [2]: 668 ± 64.7 % of vehicle

O=[N+]([O-])OCC(CCCCO[C@@H]1CO[C@H]2[C@@H]1OC[C@H]2O)O[N+](=O)[O-] (stereo partly drawn) [Example 6, 6-((3R,3aR,6R,6aR)-6-hydroxyhexahydrofuro[3,2-b]furan-3-yloxy)hexane-1,2-diyl dinitrate]
EC50 [1, 4]: 0.91 ± 0.33 µM
% of vehicle (mean ± sem at 100 μM) [2]: 1620 ± 205.0 % of vehicle

O=C(O[C@@H]1CO[C@H]2[C@@H]1OC[C@H]2O)N1CCC(O[N+](=O)[O-])CC1 [Example 7, (3R,3aR,6R,6aR)-6-hydroxyhexahydrofuro[3,2-b]furan-3-yl 4-(nitrooxy)piperidine-1-carboxylate]
EC50 [1, 4]: 4.4 ± 1.9 µM

CC(C)(CCOC(=O)O[C@@H]1CO[C@H]2[C@@H]1OC[C@H]2O)CC(CO[N+](=O)[O-])O[N+](=O)[O-] (stereo partly drawn) [Example 8, 3,3-dimethyl-5,6-bis(nitrooxy)hexyl (3R,3aR,6R,6aR)-6-hydroxyhexahydrofuro[3,2-b]furan-3-yl carbonate]
EC50 [1, 4]: 0.06 ± 0.01 µM
% of vehicle (mean ± sem at 100 μM) [2]: 564 ± 59.0 % of vehicle

O=C(CCOCC(CO[N+](=O)[O-])O[N+](=O)[O-])O[C@@H]1CO[C@H]2[C@@H]1OC[C@H]2O (stereo partly drawn) [Example 13, (3R,3aR,6R,6aR)-6-hydroxyhexahydrofuro[3,2-b]furan-3-yl 3-(2,3-bis(nitrooxy)propoxy)propanoate]
EC50 [1, 4]: 0.1 ± 0.03 µM
% of vehicle (mean ± sem at 100 μM) [2]: 683 ± 86.3 % of vehicle

O[C@@H]1CO[C@H]2[C@@H]1OC[C@H]2O [Isomannide, 1,4:3,6-dianhydro-D-mannitol, reference compound]
relaxation (concentration-response curve) ([1]; rabbit aortic rings precontracted with noradrenaline, result in words): does not produce relaxation at any of the concentration tested
EC50 (μM) ± sem [1, 4]: no effect
Δ SBP in SHR (mmHg) 2-6 hrs ([3]; single oral dose 2.4 mpk): −3 mmHg
Δ SBP in SHR (mmHg) 21-24 hrs ([3]; single oral dose 2.4 mpk): −6 mmHg
Δ SBP in SHR (mmHg) 25-48 hrs ([3]; single oral dose 2.4 mpk): −6 mmHg
Δ SBP in SHR (mmHg) 12 hrs ([3]; single oral dose 2.4 mpk): −9 mmHg
